The record followed here is US9044520B2, “Compound accumulating in inflammatory site, diagnostic agent containing the compound in labeled state and its precursor compound for labeling” (Nihon Medi-Physics Co., Ltd., priority 2011, dated 2015).

Non-standard residues stand in square brackets, D forms with d. Residues, ends and D or L forms follow the SMILES beside them. *: point of attachment. Benzoyl(4-F) = O=C(c1ccc(F)cc1)*; Nle = CCCC[C@H](N)C(=O)O; For = O=C*

For the experiment, the target named is T1, formylated peptide receptor (FPR) (Homo sapiens, UniProt P21462).
T1 sequence (P21462 1-350): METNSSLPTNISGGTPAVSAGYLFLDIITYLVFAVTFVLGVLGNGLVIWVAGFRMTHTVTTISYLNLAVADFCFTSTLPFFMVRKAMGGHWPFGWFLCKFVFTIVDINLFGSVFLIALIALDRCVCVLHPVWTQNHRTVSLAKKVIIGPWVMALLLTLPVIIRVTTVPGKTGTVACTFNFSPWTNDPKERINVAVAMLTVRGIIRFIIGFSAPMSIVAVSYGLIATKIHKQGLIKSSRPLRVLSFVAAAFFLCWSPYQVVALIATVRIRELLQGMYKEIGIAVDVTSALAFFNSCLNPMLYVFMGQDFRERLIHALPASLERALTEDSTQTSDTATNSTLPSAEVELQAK
The experiment in a line: Binding assay/inhibition assay: binding affinity for formylated peptide receptor (FPR), displacement of [125I] Trp-Lys-Tyr-Met-Val-DMet. Conditions: read-out: Ki (Mean value ± SD). On the procedure:
Each peptide having a different concentration (DMSO solution, 10 μL), 2 nmol/L [^125I] Trp-Lys-Tyr-Met-Val-DMet (10 μL) as radioligand, and FPR (10 μL) were added to a binding buffer (170 μL) and incubated at 25° C. for 1 hour, followed by collection by filtration (cell harvesters) using a GF/C filter coated with a polylysine buffer. After washing, radioactivity left on the filter was measured using a γ counter. [^125I] Trp-Lys-Tyr-Met-Val-DMet means a positive control having affinity for FPR and was obtained from PerkinElmer Co., Ltd. for use.
*Binding buffer: 50 mmol/L Hepes, pH 7.4, 5 mmol/L MgCl2, 1 mmol/L CaCl2, 0.2% BSA
Wash buffer: 50 mmol/L Hepes, pH 7.4, 500 mmol/L NaCl, 0.1% BSA
Polylysine buffer: Poly-L-lysine hydrobromate 100 mg/wash buffer 100 mL
Ki values in the table were calculated using the following equation (1).
IC50: Calculation from Graph Pad
[L]: Concentration of Radioligand (Adjusted to 0.2 nM)
In general terms: Loss of bound radioactivity is the signal in a displacement assay; it reports binding, not function.
One may read the Ki as the dissociation constant of the complex between target and ligand, obtained from inhibition or displacement. Consider `CCCC[C@H](NC=O)C(=O)N[C@@H](CC(C)C)C(=O)N[C@@H](Cc1ccccc1)C(=O)N[C@@H](CCCC)C(=O)N[C@@H](Cc1ccc(O)cc1)C(=O)N[C@H](CCCCN)C(=O)N[C@H](CCCCNC(=O)c1ccc(F)cc1)C(N)=O` [Peptide 4, formyl-Nle-Leu-Phe-Nle-Tyr-DLys-DLys-ε([^19F]FB)-NH2] (For-[Nle]LF[Nle]Y[dK][dK](Benzoyl(4-F))-NH2), for which the Ki stood at 1.22 ± 0.4 nM.
The figure for `CCCC[C@H](NC(=O)[C@H](Cc1ccccc1)NC(=O)[C@H](CC(C)C)NC(=O)[C@H](CCSC)NC=O)C(=O)N[C@@H](Cc1ccc(O)cc1)C(=O)N[C@H](CCCCNC(=O)c1ccc(F)cc1)C(=O)N[C@H](CCCCN)C(N)=O` [Peptide 5, formyl-Met-Leu-Phe-Nle-Tyr-DLys-ε([^19F]FB)-DLys-NH2] (For-MLF[Nle]Y[dK](Benzoyl(4-F))[dK]-NH2) is 0.63 ± 0.14 nM.
For `CCCC[C@H](NC=O)C(=O)N[C@@H](CC(C)C)C(=O)N[C@@H](Cc1ccccc1)C(=O)N[C@@H](CCCC)C(=O)N[C@@H](Cc1ccc(O)cc1)C(=O)N[C@H](CCCCNC(=O)c1ccc(F)cc1)C(N)=O` [Peptide 2, formyl-Nle-Leu-Phe-Nle-Tyr-DLys-ε([^19F]FB)-NH2] (For-[Nle]LF[Nle]Y[dK](Benzoyl(4-F))-NH2), the Ki stood at 0.4 ± 0.36 nM.
For the compound `CCCC[C@H](NC=O)C(=O)N[C@@H](CC(C)C)C(=O)N[C@@H](Cc1ccccc1)C(=O)N[C@@H](CCCC)C(=O)N[C@@H](Cc1ccc(O)cc1)C(=O)N[C@H](CCCCN)C(=O)N[C@H](CCCCN)C(=O)N[C@H](CCCCNC(=O)c1ccc(F)cc1)C(N)=O` [Peptide 6, formyl-Nle-Leu-Phe-Nle-Tyr-DLys-DLys-DLys-ε([^19F]FB)-NH2, reference compound] (For-[Nle]LF[Nle]Y[dK][dK][dK](Benzoyl(4-F))-NH2), the Ki amounted to 21.9 ± 12.7 nM.
As to `CCCC[C@H](NC(=O)[C@H](Cc1ccccc1)NC(=O)[C@H](CC(C)C)NC(=O)[C@H](CCSC)NC=O)C(=O)N[C@@H](Cc1ccc(O)cc1)C(=O)N[C@H](CCCCNC(=O)c1ccc(F)cc1)C(N)=O` [Peptide 1, formyl-Met-Leu-Phe-Nle-Tyr-DLys-ε([^19F]FB)-NH2] (For-MLF[Nle]Y[dK](Benzoyl(4-F))-NH2), the Ki is 0.04 ± 0.04 nM.
As for `CCCC[C@H](NC(=O)[C@H](Cc1ccccc1)NC(=O)[C@H](CC(C)C)NC(=O)[C@H](CCSC)NC=O)C(=O)N[C@@H](Cc1ccc(O)cc1)C(=O)N[C@H](CCCCN)C(=O)N[C@H](CCCCNC(=O)c1ccc(F)cc1)C(N)=O` [Peptide 3, formyl-Met-Leu-Phe-Nle-Tyr-DLys-DLys-ε([^19F]FB)-NH2] (For-MLF[Nle]Y[dK][dK](Benzoyl(4-F))-NH2), the Ki is 0.46 ± 0.07 nM.
